Experimental data reported in US9688667B2, “Tazarotene with low dimer impurity for treating acne or psoriasis” (SUN PHARMACEUTICAL INDUSTRIES LIMITED, priority 2013, dated 2017).

Legend:
[1] = test system: ear of Sprague Dawley Rats; test: Toxicity study: topical application of tazarotene spiked with dimer impurity on rat ears, ear thickness measurement; assay type: in vivo
Description: Inventor performed the toxicity study of tazarotene spiked with known dimer impurity by applying the fixed concentration a solution of tazarotene (0.1% w/v tazarotene) with variable concentrations of impurity (0-1500 ppm) on Sprague Dawley Rats as given in Table 1.
Each sample (100 μl) was applied topically once daily on the left and right ear of the animals (Sprague Dawley Rats) of the respective groups from day 0 to day 9. Animals were checked for recovery from day 10 to day 14. Ear thickness measurement was repeated on day 3, 7, 10, 12 and 14.

[2] = tazarotene gel, psoriasis, cited from earlier work

| Structure (SMILES) | effect of level of dimer impurity on ear thickness and inflammation ([1]; dimer impurity 0-1500 ppm in tazarotene samples, topical application) | toxicity of the dimer impurity ([1]; found during the animal studies) | cessation of treatment due to adverse events ([2]; of patient population) | most common adverse effect [2] |
| --- | --- | --- | --- | --- |
| CC1(C)CCSc2ccc(C#CC#Cc3ccc4c(c3)C(C)(C)CCS4)cc21 [dimer impurity, 4,4-dimethyl-6-[4-(4,4-dimethylthiochroman-6-yl)-buta-1,3-diynyl]-thiochroman] | dose dependent and significant increase | highly toxic |  |  |
| CCOC(=O)c1ccc(C#Cc2ccc3c(c2)C(C)(C)CCS3)nc1 [tazarotene, ethyl 6-[(4,4-dimethylthiochroman-6-yl)ethynyl]nicotinate] |  |  | about 5% | mild to moderate burning, pruritus, stinging and erythema |
